Residue numbers refer to the chain shown, from its start. Primed or numbered codes have the meaning given here. The star is where a group is joined. aldehyde′ = not defined here; Cbz = O=C(OCc1ccccc1)*; Moc = COC(=O)*
T1: Protease1 (subtilisin 309) (Lederbergia lenta, UniProt P29600)
T1 sequence (P29600 1-269): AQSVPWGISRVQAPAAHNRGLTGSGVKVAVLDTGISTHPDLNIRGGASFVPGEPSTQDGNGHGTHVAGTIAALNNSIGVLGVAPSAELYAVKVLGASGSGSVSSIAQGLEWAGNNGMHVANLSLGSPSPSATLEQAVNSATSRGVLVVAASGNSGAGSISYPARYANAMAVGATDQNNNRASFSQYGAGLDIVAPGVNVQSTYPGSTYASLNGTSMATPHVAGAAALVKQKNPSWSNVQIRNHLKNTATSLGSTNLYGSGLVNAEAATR

T2: Protease2 (variant of subtilisin 309) (Artificial sequence)
T2 chain: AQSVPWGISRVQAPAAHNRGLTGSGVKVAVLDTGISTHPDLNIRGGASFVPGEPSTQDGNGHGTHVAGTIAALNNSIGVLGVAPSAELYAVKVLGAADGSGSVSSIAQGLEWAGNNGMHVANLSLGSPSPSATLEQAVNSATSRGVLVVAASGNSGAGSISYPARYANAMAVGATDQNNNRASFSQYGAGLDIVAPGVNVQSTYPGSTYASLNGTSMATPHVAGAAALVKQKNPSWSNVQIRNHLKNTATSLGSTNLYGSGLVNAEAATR

T3: Protease1 (subtilisin 309) (Bacillus lentus)
T3 chain: T1 sequence (P29600 1-269)

T4: Protease4 (subtilisin BPN′) (Artificial sequence)
T4 chain: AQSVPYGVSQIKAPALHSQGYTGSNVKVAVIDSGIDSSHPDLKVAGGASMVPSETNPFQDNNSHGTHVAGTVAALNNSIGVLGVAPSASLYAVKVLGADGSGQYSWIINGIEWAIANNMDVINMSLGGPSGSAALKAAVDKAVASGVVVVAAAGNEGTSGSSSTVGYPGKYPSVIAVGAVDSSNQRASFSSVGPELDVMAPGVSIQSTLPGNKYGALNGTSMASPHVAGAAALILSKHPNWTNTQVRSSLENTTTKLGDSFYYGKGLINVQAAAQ

B1: Protease4: subtilisin protease, SEQ ID NO: 4 (subtilisin BPN′) (protein)
chain: T4 chain
modifications: BPN′ variant
B2: Protease1: subtilisin protease, amino acid sequence SEQ ID NO: 1 (subtilisin 309) (protein, listed as Bacillus lentus)
chain: T1 sequence (P29600 1-269)
B3: Protease3: subtilisin protease, SEQ ID NO: 3 (variant of subtilisin 309) (protein)
chain: T2 chain with A97S, D98E
modifications: variant of SEQ ID NO 1
B4: Protease2: subtilisin protease, SEQ ID NO: 2 (variant of subtilisin 309) (protein)
chain: T2 chain
modifications: variant of SEQ ID NO 1

Tests used:
[1] = logarithmic stability constant of the cation/chelator complex; ionic strength of 0.1 M, 25° C.; cited from earlier work
[2] = target: Protease4 (subtilisin BPN′) (Bacillus amyloliquefaciens, UniProt P00782, Y324L); test: Storage stability of Protease4 in liquid ADW detergent (residual protease activity, N,N-dimethylcasein hydrolysis); format: biochemical; details: Detergent A, Example 2
Source text: (§1) Chemicals used as buffers and substrates were commercial products of at least reagent grade. Protease1, Protease2, Protease3, and Protease4, as used in the examples below, are subtilisin proteases. Protease1 has the amino acid sequence shown in SEQ ID NO: 1 (subtilisin 309). Protease2 has the amino acid sequence shown in SEQ ID NO: 2 (variant of subtilisin 309). Protease3 has the amino acid sequence shown in SEQ ID NO: 3 (variant of subtilisin 309). Protease4 has the amino acid sequence shown in SEQ ID NO: 4 (subtilisin BPN′).
Various peptide aldehydes were produced, all with a purity >80%. The peptide aldehydes were dissolved in DMSO to a concentration of 10 mg/ml before use.
(§2) To detergent A from Example 1, the following amount of enzyme and different inhibitors (peptide aldehydes) were added, all samples normalized to 100 g of detergent. […] Three subtilisin proteases were used: Protease1, Protease2, and Protease4, all in concentration of 0.04 g active enzyme protein per gram of enzyme solution.
(§3) The detergents were placed in closed glasses at 37° C. for 2 weeks. Residual activity of protease was measured (by comparison to a reference stored at −18° C.) using standard enzyme analytical method (protease activity measured by hydrolysis of N,N-dimethylcasein at 40° C., pH=8.3).

[3] = target: T1, Protease1 (subtilisin 309); test: Storage stability of Protease1 in liquid ADW detergent (residual protease activity, N,N-dimethylcasein hydrolysis); format: biochemical; details: Protease1, no inhibitor, Detergent A, Example 2
Description: as §1, with “Protease2 has the amino acid sequence shown in SEQ ID NO: 2 (variant of subtilisin 309). Protease3 has the amino acid sequence shown in SEQ ID NO: 3 (variant of subtilisin 309).” left out
as §2, §3

[4] = target: T2, Protease2 (variant of subtilisin 309); test: cell-based or functional assay
[5] = target: T3, Protease1 (subtilisin 309); test: cell-based or functional assay
[6] = target: T4, Protease4 (subtilisin BPN′); test: cell-based or functional assay
[7] = target: Protease3 (variant of subtilisin 309) (Lederbergia lenta, UniProt P29600, INS97E); test: Storage stability of Protease3 in liquid ADW detergent (residual protease activity, N,N-dimethylcasein hydrolysis); format: biochemical; details: Protease3, no inhibitor
Description: as §1, with “Protease2 has the amino acid sequence shown in SEQ ID NO: 2 (variant of subtilisin 309). Protease3 has the amino acid sequence shown in SEQ ID NO: 3 (variant of subtilisin 309).” left out
(§4) The peptide aldehyde hydrosulfite adduct described above was dissolved in 40% propylene glycol and water was added to make a 24% w/w solution of the adduct.
(§5) [formula] […] Protease2 and Protease3 were used in concentrations of 0.04 g active enzyme protein per gram of enzyme solution.
as §3

[8] = target: Protease2 (variant of subtilisin 309) (Lederbergia lenta, UniProt P29600, DUP96-96/S97D); test: Storage stability of Protease2 in liquid ADW detergent (residual protease activity, N,N-dimethylcasein hydrolysis); format: biochemical; details: Protease2, no inhibitor
Description: as §1, with “Protease2 has the amino acid sequence shown in SEQ ID NO: 2 (variant of subtilisin 309). Protease3 has the amino acid sequence shown in SEQ ID NO: 3 (variant of subtilisin 309).” left out
as §4, §5, §3, §2

Sequence of Protease3 (variant of subtilisin 309) (P29600 other isoform, or with tags, fused parts or gaps INS97E): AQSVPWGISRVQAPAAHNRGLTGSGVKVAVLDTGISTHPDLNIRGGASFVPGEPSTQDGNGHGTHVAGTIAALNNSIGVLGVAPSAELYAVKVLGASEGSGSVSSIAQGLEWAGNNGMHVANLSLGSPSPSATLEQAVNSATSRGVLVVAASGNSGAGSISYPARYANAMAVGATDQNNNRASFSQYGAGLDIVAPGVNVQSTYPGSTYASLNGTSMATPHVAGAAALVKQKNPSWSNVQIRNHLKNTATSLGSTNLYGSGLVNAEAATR

| Molecule | Log KCa [1] | other results |
| --- | --- | --- |
| O=C(O)CC(NCCNC(CC(=O)O)C(=O)O)C(=O)O (mixture of isomers) [EDDS, ethylenediaminedisuccinic acid] | 4.6 | – |
| O=P(O)(O)CN(CP(=O)(O)O)CP(=O)(O)O [AMP, Amino-tris-(methylene-phosphonic acid)] | 1.7 | – |
| O=C([O-])[O-].[Na+].[Na+] [Carbonate, sodium carbonate] | 7.8 | – |
| O=C(O)CC(O)(CC(=O)O)C(=O)O [Citric acid] | 3.5 | – |
| O=P(O)(O)CN(CCN(CP(=O)(O)O)CP(=O)(O)O)CCN(CP(=O)(O)O)CP(=O)(O)O [DTPMP, Diethylenetriamine Penta(Methylene Phosphonic acid)] | 7.1 | – |
| O=C(O)CN(CCN(CC(=O)O)CC(=O)O)CC(=O)O [EDTA, Ethylenediaminetetraacetic acid] | 10.7 | – |
| O=C([O-])CC[C@@H](C(=O)[O-])N(CC(=O)[O-])CC(=O)[O-].[Na+].[Na+].[Na+].[Na+] [GLDA, L-glutamic acid N,N-diacetic acid tetra sodium salt] | 5.2 | – |
| CC(O)(P(=O)(O)O)P(=O)(O)O [HEDP, 1-Hydroxy Ethylidene-1,1-Diphosphonic Acid] | 6 | – |
| O=C(O)CC(NC(CC(=O)O)C(=O)O)C(=O)O (stereo not drawn) [IDS, iminodisuccinic acid] | 5.2 | – |
| CC(C(=O)O)N(CC(=O)O)CC(=O)O (stereo not drawn) [MGDA, methylglycinediacetic acid] | 7 | – |
| O=C(O)CN(CC(=O)O)CC(=O)O [NTA, Nitrilotriacetic acid] | 6.4 | – |
| O=P(O)(O)CN(CP(=O)(O)O)CP(=O)(O)O [NTMP, Nitrilo trimethylene phosphonic acid] | 7.6 | – |
| O=P(O)(O)OP(=O)(O)O [Pyrophosphate] | 5 | – |
| O=P(O)(O)OP(=O)(O)OP(=O)(O)O [STPP, sodium tripolyphosphate] | 5.36 | – |
| Moc-Val-Ala-Leu-H (Moc-Val-Ala-Leu-{aldehyde′}; reading uncertain; also: printed as Moc-Val-Ala-Leu-H) [peptide aldehyde, Moc is methoxycarbonyl] | – | Residual protease activity after two weeks at 37° C. ([2]; Protease4 with 3.3 mg peptide aldehyde/100 g (mole ratio 3.2)): 57% |
| B1 | – | Residual protease activity after two weeks at 37° C. ([2]; Protease4, no inhibitor): 5% |
| B2 | – | Residual protease activity after two weeks at 37° C. [3]: 25% |
| Cbz-Gly-Ala-Tyr-aldehyde (also: C-terminal aldehyde on Tyr) [Cbz-Gly-Ala-Tyr-H] | – | Residual protease activity after two weeks at 37° C. [4]: 86%; Residual protease activity after two weeks at 37° C. [5]: 81% |
| Moc-Val-Ala-Leu-aldehyde (also: C-terminal aldehyde on Leu) [Moc-Val-Ala-Leu-H] | – | Residual protease activity after two weeks at 37° C. [6]: 57% |
| B3 | – | Residual protease activity after two weeks at 37° C. ([7]; Detergent A (invention)): 6%; Residual protease activity after two weeks at 37° C. ([7]; Detergent B (invention)): 44%; Residual protease activity after two weeks at 37° C. ([7]; Detergent C (reference)): 74% |
| B4 | – | Residual protease activity after two weeks at 37° C. ([8]; Detergent A (invention), Example 1): 1%; Residual protease activity after two weeks at 37° C. ([8]; Detergent A, Example 2): 1%; Residual protease activity after two weeks at 37° C. ([8]; Detergent B (invention), Example 1): 10%; Residual protease activity after two weeks at 37° C. ([8]; Detergent C (reference), Example 1): 76% |
